Assay results as given in patent US9957253B2, “Triaminopyrimidine compounds useful for preventing or treating malaria” (MMV MEDICINES FOR MALARIA VENTURE, priority 2014, dated 2018).

Legend:
[1] = Pharmacokinetics in the blood of infected Pf/SCID mice; assay type: in vivo; settings: 40 mg/kg
Procedure: Pharmacokinetics in the Blood of Infected Pf/SCID Mice:
Peripheral blood samples (25 μl) were taken at different times (0.25, 0.5, 1, 2, 4, 6, 8 and 23 hours), mixed with 25 µl of H2O mili Q and immediately frozen on dry ice. The frozen samples were stored at −80° C. until analysis. Vehicle-treated mice experienced the same blood-sampling regimen. Blood samples were processed by liquid-liquid extraction by mixing 10 μl diluted blood with 180 μl AcN:MeOH (80:20; v:v) mixture. Quantitative analysis by LC/MSMS was performed using UPLC (Waters) and Sciex API4000. The lower limit of quantification (LLOQ) in this assay was 0.005 μg/ml.

[2] = Conversion of Example 13 to the active metabolite in liver microsomes, species comparison; assay type: in vitro ADME, mouse, rat, human; settings: rank order of species
Procedure: Metabolites of Example 13 were identified both in vitro and in vivo using the following models: • In vitro: The compound of Example 13 was incubated with human (HLM) or rat (RLM) liver microsomes (1 mg/ml protein concentration in 100 mM phosphate buffer, pH 7.4) at a final concentration of 10 μM in the presence of 2 mM NADPH. The reactive intermediates were trapped by including 2 mM glutathione (GSH) or N-acetyl cysteine (NAC) in the reaction mix. • In vivo in bile duct cannulated rats: Example 13 was administered intravenously (IV) as a bolus through the jugular vein at a dose of 2 mg/kg or 4 mg/kg of body weight for control (n=3) or BDC rats (n=2), respectively. Blood samples were collected at 0.083, 0.25, 0.5, 1, 2, 4, 6, 8 and 24 h through the carotid artery, bile samples were collected at 0-2 h, 2-4 h, 4-6 h, 6-8 h and 8-24 h intervals and urine samples were collected at 0-8 h and 8-24 h intervals. The bile and urine samples were analyzed for the presence of parent and metabolites and blood samples were analyzed for the presence of parent.
These studies supported the fact that the compound of Example 2 is an active metabolite of the compound of Example 13 and is formed both in vitro and in vivo.

[3] = system: parasite; test: In vitro parasite reduction ratio (PRR) assay; assay type: cell-based; settings: after 48 hours of exposure
Procedure: When tested in an in vitro parasite reduction ratio (PRR) assay (Le Manach, et al., 2013, Malar J., […], 424-430), Example 13 produced a >4-log kill after 48 hours of exposure, an effect similar to chloroquine in the same assay.

[4] = system: Pf parasites; test: Pf/SCID model efficacy; assay type: in vivo, P. falciparum; settings: oral
Procedure: Blood Cmin (0.04 μM) observed at this dose was considered the minimum parasiticidal concentration (MPC) for the human dose prediction.

[5] = system: P. vivax field isolates; test: Ex vivo drug susceptibility (schizont maturation) of P. vivax field isolates; assay type: cell-based; settings: Plasmodium vivax; Plasmodium field isolates, ex vivo; read-out: P. vivax IC50
Procedure: Further, compounds of the invention (Examples 2 and 13) were also tested against field isolates of falciparum and vivax malaria, along with three control antimalarials as described in the protocol below.
Ex Vivo Activity of Examples 2 and 13 Against Drug Resistant P. falciparum and P. Vivax Field Isolates
Standard antimalarial drugs chloroquine (CQ), amodiaquine (AQ), piperaquine (PIP), mefloquine (MFQ), and artesunate (AS) and compounds of the invention were prepared as 1 mg/mL stock solutions in H2O or dimethyl sulfoxide (DMSO) according to the manufacturers' instructions. Drug plates were pre-dosed by diluting the compounds in 50% Methanol followed by lyophilisation and stored at 4° C.
Plasmodium isolates were collected from patients attending malaria clinics in Timika (Papua, Indonesia), a region endemic for multi-drug-resistant strains of P. vivax and P. falciparum. Patients with symptomatic malaria presenting to an outpatient facility were recruited into the study if singly infected with P. falciparum or P. vivax, with a parasitaemia of between 2,000 μl-1 and 80,000 μl-1, and the majority (>80%) of parasites at ring stage of development. Venous blood (5 mL) was collected by venipuncture and after removal of host white blood cells by using cellulose (Sigma-Aldrich, Australia) filtration, packed infected red blood cells (iRBCs) were used for the ex vivo drug susceptibility assay.
Drug susceptibility of P. vivax and P. falciparum isolates was measured using a protocol modified from the WHO microtest as described previously (Marfurt et al., 2011, Antimicrob Agents Chemother., 55(9):4461). Two hundred μL of a 2% haematocrit Blood Media Mixture (BMM), consisting of RPMI 1640 medium plus 10% AB+ human serum (P. falciparum) or McCoy's 5 A medium plus 20% AB+ human serum (P. vivax), was added to each well of pre-dosed drug plates containing 11 serial concentrations (2-fold dilutions) of the antimalarials (maximum concentration shown in brackets) CQ (2,992 nM), AQ (158 nM), PIP (1,029 nM), MFQ (338 nM), AS (49 nM), and a compound of the invention (2,146 nM). A candle jar was used to mature the parasites at 37.0° C. for 35-56 hours.
Thick blood films made from each well were stained with 5% Giemsa solution for 30 minutes and examined microscopically. The number of schizonts per 200 asexual stage parasites was determined for each drug concentration and normalised to the control well. The dose-response data were analysed using nonlinear regression analysis (WinNonLn 4.1, Pharsight Corporation) and the IC50 value derived using an inhibitory sigmoid Emax model. […] Drug plate quality was assured by running schizont maturation assays (two independent experiments) with the chloroquine-resistant strain K1 and the chloroquine-sensitive strain FC27.
For microscopy slide reading QC, two randomly selected drugs per isolate were read by a second microscopist. […] If necessary, discrepant results were resolved by a third reading by an expert microscopist.

Cc1nc(Nc2ncc(N3CCN(C)[C@H](C)C3)c(Nc3cc(C)n(C)n3)n2)cc(C2CC2)c1F [Example 13, (R)—N2-(4-cyclopropyl-5-fluoro-6-methylpyridin-2-yl)-N4-(1,5-dimethyl-1H-pyrazol-3-yl)-5-(3,4-dimethylpiperazin-1-yl)pyrimidine-2,4-diamine]
Blood Cmin (minimum parasiticidal concentration, MPC) [1]: 0.04 µM
Percent conversion to the active metabolite (Example 2) [2]: highest in mouse, followed by rat and then human liver microsomes
log kill in parasite reduction ratio (PRR) assay [3]: > 4 log
Dose at which maximum kill rate was observed [4]: 40 mg/kg
IC50 [5]: 85.6 nM
